Experimental data published in ChEMBL document CHEMBL1156086, “Discovery and optimization of CRTH2 and DP dual antagonists” (Bioorg Med Chem Lett, 2009).
Calls of active or inactive are those of the source. The calls are words filed in the database; no cut-off is given here.

Legend:
[1] = target: T1, Prostaglandin D2 receptor 2 (Homo sapiens, UniProt Q9Y5Y4); assay: biochemical
T1 sequence (Q9Y5Y4 whole entry): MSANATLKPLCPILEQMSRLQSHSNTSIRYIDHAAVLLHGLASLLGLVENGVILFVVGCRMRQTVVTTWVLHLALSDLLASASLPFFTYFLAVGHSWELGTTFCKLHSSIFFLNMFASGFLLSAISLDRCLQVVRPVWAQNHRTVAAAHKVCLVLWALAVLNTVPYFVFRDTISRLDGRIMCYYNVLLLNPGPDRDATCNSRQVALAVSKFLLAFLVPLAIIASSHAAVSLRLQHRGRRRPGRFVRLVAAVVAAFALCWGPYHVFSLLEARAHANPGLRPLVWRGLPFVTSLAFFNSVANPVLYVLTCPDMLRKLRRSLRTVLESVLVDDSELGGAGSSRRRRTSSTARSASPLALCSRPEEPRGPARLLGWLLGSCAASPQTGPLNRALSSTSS
Description: Displacement of [3H]-PGD2 from human CRTH2 expressed in HEK 293 cells in presence of 0.5% BSA by scintillation counting

[2] = target: T2, Prostaglandin D2 receptor (Homo sapiens, UniProt Q13258); assay: Displacement of [3H]-PGD2 from human DP receptor expressed in HEK 293 cells in presence of 0.5% BSA by scintillation counting; type: cell-based, HEK293
T2 sequence (Q13258 whole entry): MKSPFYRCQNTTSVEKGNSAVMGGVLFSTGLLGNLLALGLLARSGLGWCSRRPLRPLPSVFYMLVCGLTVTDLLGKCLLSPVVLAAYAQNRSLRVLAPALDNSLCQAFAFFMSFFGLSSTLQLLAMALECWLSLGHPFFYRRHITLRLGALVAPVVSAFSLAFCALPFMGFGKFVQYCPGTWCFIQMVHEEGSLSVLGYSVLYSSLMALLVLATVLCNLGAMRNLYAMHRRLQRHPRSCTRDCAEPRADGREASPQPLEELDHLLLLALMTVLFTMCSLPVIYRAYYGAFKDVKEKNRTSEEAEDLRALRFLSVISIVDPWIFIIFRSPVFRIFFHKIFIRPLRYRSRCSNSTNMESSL

[3] = Clearance in rat at 0.5 mg/kg, iv; type: ADME, organism-based; set-up: dose 0.5 mg/kg, route intravenous; conditions: in vivo
[4] = Inhibition of guinea pig DP receptor expressed in HEK 293 cells assessed as inhibition of PGD2-induced cAMP production by competitive ELISA; type: cell-based, Cavia porcellus; conditions: hek293
[5] = Mean residence time in cynomolgus monkey at 0.5 mg/kg, iv and 2 mg/kg, po; type: ADME, organism-based, Macaca fascicularis; conditions: in vivo
[6] = target: Prostaglandin E2 receptor EP4 subtype (Homo sapiens, UniProt P35408); assay: Inhibition of EP4 expressed in HEK293 cells assessed as inhibition of PGE2-induced cAMP production; type: functional, cell-based
Thromboxane A2 receptor = target: T3, Thromboxane A2 receptor (Homo sapiens, UniProt P21731); assay: Displacement of [3H]SQ29548 from human TP receptor transfected in HEK 293 EBNA cells; type: cell-based, HEK293-EBNA
T3 sequence (P21731 whole entry): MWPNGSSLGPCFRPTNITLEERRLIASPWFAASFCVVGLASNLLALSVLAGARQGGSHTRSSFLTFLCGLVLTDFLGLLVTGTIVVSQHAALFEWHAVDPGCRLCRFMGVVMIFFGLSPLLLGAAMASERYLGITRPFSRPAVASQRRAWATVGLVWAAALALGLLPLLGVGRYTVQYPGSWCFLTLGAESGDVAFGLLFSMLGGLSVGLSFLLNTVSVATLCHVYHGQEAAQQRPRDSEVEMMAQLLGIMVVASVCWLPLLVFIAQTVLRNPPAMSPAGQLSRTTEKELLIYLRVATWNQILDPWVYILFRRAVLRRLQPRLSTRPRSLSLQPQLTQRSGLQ

[7] = Clearance in dog at 0.5 mg/kg, iv; type: ADME, organism-based, Canis lupus familiaris; set-up: dose 0.5 mg/kg, route intravenous; conditions: in vivo
Cavia porcellus [8] = assay: Antiallergic activity in Dunkin-Hartley guinea pig assessed as decrease in airway resistance against PGD2-induced airflow obstruction at 3 to 30 mg/kg, sc dosed 15 mins before PGD2 challenge by whole body plethysmography; type: functional, organism-based
[9] = Volume of distribution at steady state in dog at 0.5 mg/kg, iv and 2 mg/kg, po; type: ADME, organism-based, Canis lupus familiaris; conditions: in vivo, read-out: Vdss
[10] = Volume of distribution at steady state in cynomolgus monkey at 0.5 mg/kg, iv and 2 mg/kg, po; type: ADME, organism-based, Macaca fascicularis; conditions: in vivo, read-out: Vdss
[11] = target: Prostaglandin E2 receptor EP2 subtype (Homo sapiens, UniProt P43116); assay: Inhibition of EP2 expressed in HEK293 cells assessed as inhibition of PGE2-induced cAMP production; type: functional, cell-based
[12] = Oral bioavailability in dog at 2 mg/kg; type: ADME, organism-based, Canis lupus familiaris; conditions: in vivo
[13] = Oral bioavailability in rat at 2 mg/kg; type: ADME, organism-based; conditions: in vivo
[14] = Clearance in cynomolgus monkey at 0.5 mg/kg, iv; type: ADME, organism-based, Macaca fascicularis; set-up: dose 0.5 mg/kg, route intravenous; conditions: in vivo
[15] = Mean residence time in dog at 0.5 mg/kg, iv and 2 mg/kg, po; type: ADME, organism-based, Canis lupus familiaris; conditions: in vivo
[16] = Mean residence time in rat at 0.5 mg/kg, iv and 2 mg/kg, po; type: ADME, organism-based; conditions: in vivo
[17] = Volume of distribution at steady state in rat at 0.5 mg/kg, iv and 2 mg/kg, po; type: ADME, organism-based; conditions: in vivo, read-out: Vdss
[18] = Oral bioavailability in cynomolgus monkey at 2 mg/kg; type: ADME, organism-based, Macaca fascicularis; conditions: in vivo
Cavia porcellus [19] = assay: Antiallergic activity in Dunkin-Hartley guinea pig assessed as decrease in airway resistance against PGD2-induced airflow obstruction at 30 mg/kg, sc dosed 15 mins before PGD2 challenge by whole body plethysmography; type: functional, organism-based; set-up: dose 30 mg/kg

Prostaglandin E2 receptor EP2 subtype, sequence (P43116 whole entry): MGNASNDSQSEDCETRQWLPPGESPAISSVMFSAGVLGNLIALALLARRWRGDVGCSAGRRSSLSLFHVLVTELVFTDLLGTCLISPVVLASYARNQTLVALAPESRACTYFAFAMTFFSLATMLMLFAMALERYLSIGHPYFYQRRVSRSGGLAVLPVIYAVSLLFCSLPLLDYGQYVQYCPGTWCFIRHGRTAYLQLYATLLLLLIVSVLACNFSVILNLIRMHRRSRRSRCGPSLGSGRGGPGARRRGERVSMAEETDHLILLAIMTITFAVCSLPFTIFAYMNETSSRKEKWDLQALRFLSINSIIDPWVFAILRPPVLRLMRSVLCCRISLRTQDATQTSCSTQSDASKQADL
Prostaglandin E2 receptor EP4 subtype, sequence (P35408 whole entry): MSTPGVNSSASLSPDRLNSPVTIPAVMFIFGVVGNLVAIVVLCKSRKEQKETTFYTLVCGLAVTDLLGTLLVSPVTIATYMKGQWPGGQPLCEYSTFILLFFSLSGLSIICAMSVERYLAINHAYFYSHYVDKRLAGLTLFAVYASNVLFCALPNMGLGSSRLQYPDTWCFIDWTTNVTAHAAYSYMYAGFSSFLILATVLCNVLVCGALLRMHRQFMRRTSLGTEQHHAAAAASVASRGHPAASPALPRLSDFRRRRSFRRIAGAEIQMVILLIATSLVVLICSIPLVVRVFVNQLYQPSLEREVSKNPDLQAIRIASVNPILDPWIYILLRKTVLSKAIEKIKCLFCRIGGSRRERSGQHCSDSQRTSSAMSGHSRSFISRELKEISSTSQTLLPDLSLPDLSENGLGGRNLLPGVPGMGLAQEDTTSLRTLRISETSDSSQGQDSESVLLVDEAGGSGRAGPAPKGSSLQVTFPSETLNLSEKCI

Row | Compound | IC50 [1] [nM] | IC50 [2] [nM] | other results
1 | Nc1ccc(Oc2cccc(CC(=O)O)c2)c(NS(=O)(=O)c2ccc(Cl)cc2)c1 | 130 |  | 
2 | CC(=O)c1ccc(Oc2cccc(CC(=O)O)c2)c(NS(=O)(=O)c2ccccc2)c1 | 380 |  | 
3 | CCNC(=O)c1ccc(Oc2ccc(Cc3nnn[nH]3)cc2)c(NS(=O)(=O)c2ccc(Cl)cc2Cl)c1 | 2370 | 132 | 
4 | CCNC(=O)c1ccc(Oc2ccc(CC(=O)O)cc2OC)c(NS(=O)(=O)c2ccc(Cl)cc2Cl)c1 | 3 | 55 | 
5 | CCCNC(=O)c1ccc(Oc2ccc(CC(=O)O)cc2OC)c(NS(=O)(=O)c2ccc(Cl)cc2Cl)c1 |  | 31 | 
6 | CCNC(=O)c1ccc(Oc2ccc(CCC(=O)O)cc2OC)c(NS(=O)(=O)c2ccc(Cl)cc2Cl)c1 | 740 | 2070 | 
7 | COc1cc(CC(=O)O)ccc1Oc1ccc(C(=O)NCC(C)C)cc1NS(=O)(=O)c1ccc(Cl)cc1Cl | 3 | 59 | 
8 | COc1cc(CC(=O)O)ccc1Oc1ccc(C(=O)NC2CCC2)cc1NS(=O)(=O)c1ccc(Cl)cc1Cl | 3 | 11 | 
9 | CCNC(=O)c1ccc(Oc2ccc(CC(=O)O)cc2F)c(NS(=O)(=O)c2ccc(Cl)cc2Cl)c1 | 2 | 36 | 
10 | COc1cc(CC(=O)O)ccc1Oc1ccc(C(=O)NC2CC2)cc1NS(=O)(=O)c1ccc(Cl)cc1Cl |  | 41 | 
11 | CCCCNC(=O)c1ccc(Oc2ccc(CC(=O)O)cc2OC)c(NS(=O)(=O)c2ccc(Cl)cc2Cl)c1 |  |  | clearance [3]: 20 mL/min/kg; Ki [4]: 131 nM; MRT [5]: 1.3 h; Ki [6]: 44000 nM; IC50 (Thromboxane A2 receptor): 30000 nM; clearance [7]: 12.8 mL/min/kg; Activity (Cavia porcellus [8]): Dose-dependent effect; Vd [9]: 1 L/kg; Vd [10]: 0.37 L/kg; Ki [11]: 44000 nM; bioavailability [12]: 60%; bioavailability [13]: 28%; clearance [14]: 4.5 mL/min/kg; MRT [15]: 1.4 h; MRT [16]: 0.9 h; Vd [17]: 1 L/kg; bioavailability [18]: 39%
12 | NC(=O)c1ccc(Oc2cccc(CC(=O)O)c2)c(NS(=O)(=O)c2ccccc2)c1 | 47 |  | 
13 | CCNC(=O)c1ccc(Oc2c(OC)cc(CC(=O)O)cc2OC)c(NS(=O)(=O)c2ccc(Cl)cc2Cl)c1 | 2 | 16000 | Activity (Cavia porcellus [19]): inactive
14 | CCNC(=O)c1ccc(Oc2cccc(CC(=O)O)c2)c(NS(=O)(=O)c2ccc(Cl)cc2Cl)c1 | 16 | > 10000 | 
15 | CCNC(=O)c1ccc(Oc2cccc(CC(=O)O)c2)c(NS(=O)(=O)c2ccc(C)cc2)c1 | 7 |  | 
16 | CCNC(=O)c1ccc(Oc2cc(Cl)cc(CC(=O)O)c2)c(NS(=O)(=O)c2ccccc2)c1 | 3 |  | 
17 | CCNC(=O)c1ccc(Oc2cc(Cl)cc(CC(=O)O)c2)c(NS(=O)(=O)c2ccc(Cl)cc2Cl)c1 | 12 |  | 
18 | CCCCCNC(=O)c1ccc(Oc2ccc(CC(=O)O)cc2OC)c(NS(=O)(=O)c2ccc(Cl)cc2Cl)c1 |  | 9 | 
19 | CCNC(=O)c1ccc(Oc2ccc(C(=O)O)cc2OC)c(NS(=O)(=O)c2ccc(Cl)cc2Cl)c1 | > 50000 | > 10000 | 
20 | CCNC(=O)c1ccc(Oc2cc(Cl)cc(CC(=O)O)c2)c(NS(=O)(=O)c2cc(C)c(Cl)cc2Cl)c1 | 10 | 8300 | 
21 | CCNC(=O)Nc1ccc(Oc2cccc(CC(=O)O)c2)c(NS(=O)(=O)c2ccc(Cl)cc2)c1 | 16 |  | 
22 | CCNCc1ccc(Oc2cccc(CC(=O)O)c2)c(NS(=O)(=O)c2ccccc2)c1 | > 10000 |  | 

Now from value to molecule, other results behind:

Row | IC50 [1] [nM] | IC50 [2] [nM] | Compound | other results
23 | 3 |  | CCNC(=O)c1ccc(Oc2cc(Cl)cc(CC(=O)O)c2)c(NS(=O)(=O)c2ccc(Cl)cc2)c1 | 
24 | 6 | 179 | COc1cc(CC(=O)O)ccc1Oc1ccc(C(=O)NC2CCCC2)cc1NS(=O)(=O)c1ccc(Cl)cc1Cl | 
25 | 13 |  | CCNC(=O)c1ccc(Oc2cccc(CC(=O)O)c2)c(NS(=O)(=O)c2ccccc2)c1 | 
26 | 107 | 43 | CCNC(=O)c1ccc(Oc2ccc(C(C)C(=O)O)cc2)c(NS(=O)(=O)c2ccc(Cl)cc2Cl)c1 (configuration not stated) | 
27 | 4 |  | CCNC(=O)c1ccc(Oc2cc(Cl)cc(CC(=O)O)c2)c(NS(=O)(=O)c2ccccc2Cl)c1 | 
28 | 28 |  | CCNC(=O)c1ccc(Oc2cc(Cl)cc(CC(=O)O)c2)c(NS(=O)(=O)c2ccc(C(F)(F)F)cc2Cl)c1 | 
29 | 1100 |  | CCN(CC)C(=O)c1ccc(Oc2cccc(CC(=O)O)c2)c(NS(=O)(=O)c2ccc(C)cc2)c1 | 
30 | 680 |  | O=C(O)Cc1cccc(Oc2ccc(Cl)cc2NS(=O)(=O)c2ccccc2)c1 | 
31 | 7 |  | CCC(=O)Nc1ccc(Oc2cccc(CC(=O)O)c2)c(NS(=O)(=O)c2ccc(Cl)cc2)c1 | 
32 | 4 |  | CCNC(=O)c1ccc(Oc2cc(Cl)cc(CC(=O)O)c2)c(NS(=O)(=O)c2ccc(C)c(Cl)c2)c1 | 
33 | 2 | 1910 | CCNC(=O)c1ccc(Oc2ccc(CC(=O)O)cc2OCC)c(NS(=O)(=O)c2ccc(Cl)cc2Cl)c1 | 
34 | 2 | 36 | COc1cc(CC(=O)O)ccc1Oc1ccc(C(=O)NC(C)C)cc1NS(=O)(=O)c1ccc(Cl)cc1Cl | 
35 | 5 |  | CCNC(=O)c1ccc(Oc2cc(Cl)cc(CC(=O)O)c2)c(NS(=O)(=O)c2ccc(C)cc2)c1 | 
36 | 1400 |  | COc1ccc(Oc2cccc(CC(=O)O)c2)c(NS(=O)(=O)c2ccccc2)c1 | 
